Structures are written as SMILES.

Two compounds from paper PMC8587515, “Cytotoxic and Anti-Inflammatory Activities of Dihydroisocoumarin and Xanthone Derivatives from Garcinia picrorhiza” (Molecules, 2021) can be followed below.

In data set [1] the test system is NO production in LPS-IFN-γ-induced RAW 264.7 macrophages. Briefly: NO production inhibition assay (Griess), RAW 264.7. The class given is cell-based, mouse. The conditions noted are these: for IC50: Mus musculus, RAW264.7, LPS-IFN-γ-induced, 16 h, mean ± SEM (n = 6), read-out: IC50, iNOS (inhibition of NO production), RAW 264.7; for suppression of NO production, RAW 264.7: final concentration of 50 µM, preliminary screen. On the procedure:
(§1) Compounds 1–8 were screened for their inhibitory effects on nitric oxide production in LPS-IFN-γ activated RAW 264.7 macrophages and BV-2 microglial cells at a final concentration of 50 µM. […] A deprenylated furanoxanthone structure with ortho hydroxy group in ring B as in 7 might be important to enhance the inhibitory effect when compared to 6 and 8.
(§2) The iNOS inhibitory activity of the isolated compounds and respective cytotoxicity was determined using a previously described protocol. Briefly, BV-2 mouse microglial (25,000 cells/well) and RAW 264.7 mouse macrophage (100,000 cells/well) cell lines were seeded into 96-well plates in high glucose Dulbecco’s Modified Eagle’s Medium (DMEM, Gibco) containing 4 mM L-glutamine, 10% FBS, 2% HEPES, 1% penicillin/streptomycin, and 0.5% amphotericin B. After incubation for 24 h at 37 °C in a 5% CO2 humidified atmosphere, the cells were stimulated with 0.05% LPS (Sigma) and 0.025% interferon-γ (Roche Diagnostics, Mannheim, Germany) and treated with different concentrations (5–100 μM) of the tested compounds. The level of NO production in cell culture supernatants was determined using Griess reagent (Sigma) by photocolorimetric analysis after 16 h of incubation, using a Hidex Sense Microplate Reader (Hidex, Turku, Finland). Fifty microliters of XTT reagent (Sigma, Kit II) was then added into the same plates for cell viability measurement after 60 min incubation. L-NMMA (Alexis, Grünberg, Germany) 100 µM was used as the positive control, while 1% DMSO and digitonin (Roth, Karlsruhe, Germany) 400 µM were used as the vehicle and negative control, respectively. The assays were conducted in triplicates and repeated in two independent experiments. IC50 values were determined by graphical analysis using GraphPad Prism 7 (GraphPad Software, La Jolla, CA, USA).
A general note: The Griess reaction detects nitrite, a stable product of nitric oxide.

A short description of data set [2]: Cytotoxicity (XTT cell viability), RAW 264.7. The conditions noted are these: mouse, RAW 264.7 macrophage cells, LPS/IFN-γ-stimulated, LPS-IFN-γ-induced cells, mean ± SEM (n = 6). It is filed as cell-based. On the procedure:
as §1, §2
(In general: Tetrazolium dyes change colour on reduction, which living cells bring about.)

For data set [3], the system named is NO production in LPS-IFN-γ-induced BV-2 microglial cells. Nature of the data set: NO production inhibition assay (Griess), BV-2. The class given is cell-based, mouse. The conditions noted are these: for IC50: Mus musculus, BV-2, LPS-IFN-γ-induced, 16 h, mean ± SEM (n = 6), read-out: IC50, iNOS (inhibition of NO production), BV-2; for suppression of NO production, BV-2: final concentration of 50 µM, preliminary screen; for IC50 of NO inhibition lower than the cytotoxic activity, BV-2: ratio cytotoxicity IC50 / NO inhibition IC50 in BV-2 cells. The protocol:
as §1, §2

Data set [4] can be described thus: Cytotoxicity (XTT cell viability), BV-2. The conditions noted are these: mouse, BV-2 microglial cells, LPS/IFN-γ-stimulated, LPS-IFN-γ-induced cells, mean ± SEM (n = 6). It is filed as cell-based. On the procedure: as §1, §2
For data set [5], the target named is T1, COX-2 (human recombinant PGHS-2) (Homo sapiens, UniProt P35354).
T1 construct: purchased Cayman Chemical Co., Ann Arbor, MI, USA
T1 sequence (P35354 18-604): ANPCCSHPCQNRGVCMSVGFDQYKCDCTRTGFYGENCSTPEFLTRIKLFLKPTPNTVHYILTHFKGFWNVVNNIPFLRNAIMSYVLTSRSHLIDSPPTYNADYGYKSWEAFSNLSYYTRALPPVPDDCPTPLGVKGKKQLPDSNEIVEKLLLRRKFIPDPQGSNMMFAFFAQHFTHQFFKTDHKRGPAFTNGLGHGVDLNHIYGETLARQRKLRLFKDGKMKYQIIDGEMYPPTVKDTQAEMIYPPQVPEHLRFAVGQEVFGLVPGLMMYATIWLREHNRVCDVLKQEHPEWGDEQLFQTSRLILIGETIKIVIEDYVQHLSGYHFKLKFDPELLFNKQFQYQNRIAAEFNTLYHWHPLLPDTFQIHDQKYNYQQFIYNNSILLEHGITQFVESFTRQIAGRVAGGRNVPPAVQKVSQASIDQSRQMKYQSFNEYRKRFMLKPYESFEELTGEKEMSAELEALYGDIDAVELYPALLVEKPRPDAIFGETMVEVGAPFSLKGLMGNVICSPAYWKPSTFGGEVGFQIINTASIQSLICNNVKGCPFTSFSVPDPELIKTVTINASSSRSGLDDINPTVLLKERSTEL
Nature of the data set: COX-2 enzyme inhibition assay (PGE2 ELISA). The class given is biochemical. The conditions noted are these: mean ± SD (n = 4). On the procedure:
The anti-inflammatory effects of the isolated compounds were also screened on COX-1 and COX-2 enzymes inhibition at a final concentration of 20 µM.
Purified PGHS-1 from ram seminal vesicles for COX-1 and human recombinant PGHS-2 for COX-2 (Cayman Chemical Co., Ann Arbor, MI, USA) were used for the COX inhibition assays. Experiments were performed in a 96-well plate format, as previously described. Briefly, the incubation mixture contained 180 µL of 0.1 M TRIS/HCl-buffer pH 8.0 (Roth, Karlsruhe, Germany), 50 µM Na2EDTA (only for COX-2, Titriplex III, Merck, Darmstadt, Germany), 18 mM L-epinepherine bitartrate (Fluka, Buchs, Switzerland), 5 µM porcine hematin (MP Biomedicals LLC, Solon, OH, USA), and COX-1 or COX-2 enzymes (0.2 U/well). Ten microliters of tested compounds (dissolved in DMSO with a final concentration of 20 µM) was added and the mixture was pre-incubated for 5 min at room temperature. Thereafter, 10 µL of 5 µM arachidonic acid (Ann Arbor, Michigan USA) was added to the mixture and incubated for 20 min at 37 °C. The reaction was subsequently stopped by adding 10 µL of 10% (v/v) formic acid. The concentration of PGE2 generated in the reaction was quantitatively measured by a competitive PGE2 ELISA kit (Enzo Life Sciences Inc., Farmingdale, NY, USA) according to the manufacturer’s protocol and previous procedure. The absorbance at 405 nm was measured using a Hidex Sense Microplate Reader (Hidex, Turku, Finland). […] The assays were performed in duplicates and repeated in two independent experiments.
Background: In an ELISA, binding on a coated surface is turned into a signal by an enzyme label.

With `C[C@H]1Oc2c(c(O)c3c(=O)c4ccc(O)c(O)c4oc3c2CCC(C)(C)O)C1(C)C` [Compound 4, gerontoxanthone C hydrate], in data set [1], the IC50 (commonly the concentration that gives 50% inhibition) came to 84.3 ± 3.5 µM and the “suppression of NO production, RAW 264.7” value is recorded as “over 70%”. Besides, the IC50 at 16 h in data set [2] is greater than 200 µM. In addition, in data set [3], the IC50 came to 20 ± 4 µM; the “suppression of NO production, BV-2” value is “over 70%”; the “IC50 of NO inhibition lower than the cytotoxic activity, BV-2” value came to 1.4 fold. For the same compound, 27.7 ± 6.4 µM corresponded to half-maximal inhibition in data set [4] (IC50 at 16 h). Also, in data set [5], the inhibition (in general, the change of the read-out against control, counted positive when it falls) at 20 µM is less than 10%.
As to `C[C@@H]1Oc2cc(O)c3c(=O)c4ccc(O)c(O)c4oc3c2C1(C)C` [Compound 7, 2-deprenylrheediaxanthone B], in data set [1], the IC50 is 45.6 ± 6.5 µM and the “suppression of NO production, RAW 264.7” value is given as “over 70%”. The compound also displayed an IC50 at 16 h in data set [2] of 85.6 ± 6.9 µM. In data set [3], the IC50 was found to be 28.7 ± 2.3 µM; the “suppression of NO production, BV-2” value was “over 70%”; the “IC50 of NO inhibition lower than the cytotoxic activity, BV-2” value worked out at 1.1 fold. In data set [4], the IC50 at 16 h was determined as 31.7 ± 4.7 µM. Further, in data set [5], the inhibition at 20 µM was less than 10%.
